Source: CN110693875A, “一种预防或治疗性功能障碍的药物组合物及其用途” (Chengdu Baiyu Pharmaceutical Co Ltd, priority 2018, dated 2020)

Key:
ED patient (ED) = experiment: Clinical observation 1: ED patient, hypertension; type: in vivo, human; settings: oral sildenafil 3 months, before the combination
[1] = system: patient with erectile dysfunction (勃起功能障碍); experiment: Clinical observation 2: patient with erectile dysfunction and premature ejaculation; type: in vivo, human; settings: oral sildenafil 3 months, before the combination
[2] = system: vascular ED rabbit model (血管性ED家兔模型); experiment: Test example 1: mating test in vascular ED rabbits; type: in vivo, New Zealand white rabbit; settings: alprostadil alone, intracavernosal; for sexual activity parameters overall vs model group: once daily 1 week
[3] = system: aged rat ED model (老年性大鼠ED模型); experiment: Test example 2: apomorphine-induced erection and electrically evoked erection in aged rats; type: in vivo, SD rat; settings: alprostadil alone, intracavernosal, 14 days
[4] = system: neurogenic ED rat model (神经性ED大鼠模型); experiment: Test example 3: mating behaviour in rats with cavernous nerve injury; type: in vivo, SD rat; settings: alprostadil alone, intracavernosal, 14 days

Row | Compound | attempted intercourse with sufficient sexual stimulation (ED patient (ED)) | IIEF-5 score after sildenafil (ED patient (ED); baseline 4) | intercourse satisfaction [1] | overall satisfaction [1] | IIEF-5 score after sildenafil ([1]; baseline 12) | observed parameters vs control group ([2]; high dose 5μg/kg) | sexual activity parameters overall vs model group ([2]; high dose 5μg/kg) | sexual activity parameters overall vs model group ([2]; low dose 0.05μg/kg) | sexual activity parameters overall vs model group ([3]; high dose 10μg/kg) | sexual activity parameters overall vs model group ([3]; low dose, printed 0.02μg/kg) | sexual activity parameters overall vs model group ([4]; high dose 10μg/kg) | sexual activity parameters overall vs model group ([4]; low dose 0.1μg/kg)
1 | CCCc1nn(C)c2c(=O)[nH]c(-c3cc(S(=O)(=O)N4CCN(C)CC4)ccc3OCC)nc12 [西地那非] | 尝试性交失败 | 5 | 未得到提高 | 略有下降 | 12 | – | – | – | – | – | – | –
2 | CCCCC[C@H](O)/C=C/[C@H]1[C@H](O)CC(=O)[C@@H]1CCCCCCC(=O)O [前列地尔, (1R,2R,3R)-3-羟基2-[(E)-(3S)-3-羟基-1-辛烯基]-5-氧代环戊烷庚酸] | – | – | – | – | – | 趋向于对照组 | 总体优于模型组 | 总体优于模型组 | 总体优于模型组 | 总体优于模型组 | 总体优于模型组 | 总体优于模型组
